Experimental data as given in patent US20230125698A1, “APHERESIS COLUMN FOR TREATING RHEUMATOID ARTHRITIS” (UNIVERSITÉ PAUL SABATIER TOULOUSE III, priority 2020, published 2023).
Non-standard residues stand in square brackets, D forms with d. No end group written: not given here. Cit = NC(=O)NCCC[C@H](N)C(=O)O

Assays:
[1] = system: anti-citrullinated peptide/protein antibodies (ACPA) in serums from AhFibA-positive rheumatoid arthritis patients; assay: ELISA reactivity of rheumatoid arthritis patient serums with respect to the citrullinated peptides; type: binding, human; conditions: β60-74Cit-NH2 and/or Ac-α36-50Cit
[2] = system: anti-citrullinated peptide/protein antibodies (ACPA) in serums from AhFibA-positive rheumatoid arthritis patients; assay: as above; type: binding, human; parameters: key to Reactivity profile of serum with respect to the peptide: +++: strong positive; ++: medium positive; +: weak positive; empty box: negative; conditions: for Correlation between the reactivities of the serums with respect to the different peptides (Spearman): 202 serums, peptide pairs compared; for Reactivity profile of serum with respect to the peptide: ELISA
Method: Serum samples were obtained from 202 rheumatoid arthritis patients positive for the “AhFibA” ELISA test, which allows to detect and titer the ACPA using the citrullinated human fibrinogen as an immunosorbent.
The antigens or immunosorbents (citrullinated fibrinogen or citrullinated and non-citrullinated peptides), solubilised in PBS (1.5 mM KH2PO4 SIGMA 795488; 7 mM K2HPO4 SIGMA P3786; 0.15M NaCl SIGMA 31434; pH 7.2) at concentrations of 5 and 10 μg/mL, are adsorbed in the microtiter plate wells (MAXISORP NUNC 2023-09) by incubation overnight at 4° C., or used in avidin-biotin system: avidin 5 μg/mL in PBS incubated overnight at 4° C. and then, after washing, biotinylated peptide at 10 μg/mL in PBS, incubated 1 h at 4° C. After blocking in PBS 2% BSA (Sigma A3059) for 1 hour at 4° C. and washing in PBS 0.1% Tween®20 (SIGMA P1379), the samples to be tested are deposited diluted 1:50 (1:100 in the Avidin-Biotin system) or at equivalent corrected dilutions, in PBS 2% BSA 2MNaCl. After washing, the secondary antibody (goat anti-human IgG Fc fragment coupled to horseradish peroxidase; Southern Biotech 2040-05) is incubated for 1 hour at 4° C. After washing, the revelation is performed with a solution of Ortho-Phenylene Diamine dihydrochloride (Sigma P2788), 0.03% H2O2 (Sigma H1009), in citrate/H3PO4 buffer pH5 (0.05 M citric acid Sigma C0759; 0.1 M Na2HPO4 Prolabo 28026292) for 5 minutes at room temperature, and then stopped with a solution of H2SO4 6N (Sigma 07208). The optical density (OD) is read at 492 nm with a Multiskan Fc plate reader (ThermoScientific).
Expression of the results of the ELISA tests: for the peptides, the variation in OD between the reactivity of the citrullinated peptide and the reactivity of the non-citrullinated peptide is taken into account, each reactivity being previously subtracted from its blank (OD in the absence of sample). This gives the following formula:
ΔDO=(DOcit−DOblank cit)−(DOnoncit−DOblank noncit) [Math 1]
The ΔDO for the peptides and the OD for the citrullinated fibrinogen are considered to express the titer of the samples tested.
The inter-assay variations are corrected for by using a range of dilutions of a pool of patient serums tested in each microtiter plate. This reference pool, named P97, was made up of 97 samples of the same volume from 97 patients with a high ACPA titer. The OD values of this internal range are compared to that of reference values where each point in the range is the average of 30 determinations previously performed from this same pool. The least squares method then allows to obtain a correction factor which is applied to all the OD values obtained on the corresponding plate. This corrected OD corresponds to the titer of the sample.
The reactivity profiles of the 202 samples of patient serums with respect to the citrullinated fibrinogen and the 4 citrullinated peptides were determined by ELISA in at least two independent assays, each being done in duplicate. For the sake of reproducibility, only the microtiter plates whose internal range required the application of a correction factor between 0.5 and 2 with respect to the reference range were considered.

[3] = serum n°1, ACPA-positive RA patient serum
[4] = serum n°6, ACPA-positive RA patient serum
[5] = serum n°10, ACPA-positive RA patient serum
[6] = serum n°16, ACPA-positive RA patient serum
[7] = serum n°17, ACPA-positive RA patient serum
[8] = serum n°22, ACPA-positive RA patient serum
[9] = serum n°25, ACPA-positive RA patient serum
[10] = serum n°29, ACPA-positive RA patient serum
[11] = serum n°41, ACPA-positive RA patient serum
[12] = serum n°64, ACPA-positive RA patient serum

| Substance | Reactivity of the plasmas tested to the peptide [1] | Correlation between the reactivities of the serums with respect to the different peptides (Spearman) [2] | Reactivity profile of serum with respect to the peptide [2, 3] | Reactivity profile of serum with respect to the peptide [2, 4] | Reactivity profile of serum with respect to the peptide [2, 5] | Reactivity profile of serum with respect to the peptide [2, 6] | Reactivity profile of serum with respect to the peptide [2, 7] | Reactivity profile of serum with respect to the peptide [2, 8] | Reactivity profile of serum with respect to the peptide [2, 9] | Reactivity profile of serum with respect to the peptide [2, 10] | Reactivity profile of serum with respect to the peptide [2, 11] | Reactivity profile of serum with respect to the peptide [2, 12] | Percentage of RA serums positive (reactive in ELISA) for the peptide ([2]; 202 serums from AhFibA-positive RA patients) [%] |
| --- | --- | --- | --- | --- | --- | --- | --- | --- | --- | --- | --- | --- | --- |
| GPX1VVEX2HQSACKDS (Ac-GP[Cit]VVE[Cit]HQSACKDS) [Ac-α36-50Cit, N-terminal G acetylated; X1 and X2 citrullyl residues; fibrinogen α-chain 36-50] | most of the plasmas tested were reactive | no correlation was found | [empty] | [empty] | [empty] | + | + | [empty] | +++ | + | +++ | +++ | – |
| VDIDIKIX1SCX2GSCS (VDIDIKI[Cit]SC[Cit]GSCS; cysteine pairing not given here) [α171-185Cit, X1 and X2 citrullyl residues; fibrinogen α-chain 171-185] | – | significant correlations | + | + | + | ++ | +++ | +++ | [empty] | [empty] | ++ | [empty] | – |
| X1GHAKSX2PVX3GIHTS ([Cit]GHAKS[Cit]PV[Cit]GIHTS) [α621-635Cit, X1, X2 and X3 citrullyl residues; fibrinogen α-chain 621-635] | – | significant correlations | + | +++ | [empty] | +++ | +++ | ++ | + | +++ | [empty] | [empty] | – |
| X1PAPPPISGGGYX2AX3 ([Cit]PAPPPISGGGY[Cit]A[Cit]-NH2; N-terminus assumed; SMILES CC[C@H](C)[C@H](NC(=O)[C@@H]1CCCN1C(=O)[C@@H]1CCCN1C(=O)[C@@H]1CCCN1C(=O)[C@H](C)NC(=O)[C@@H]1CCCN1C(=O)[C@@H](N)CCCNC(N)=O)C(=O)N[C@@H](CO)C(=O)NCC(=O)NCC(=O)NCC(=O)N[C@@H](Cc1ccc(O)cc1)C(=O)N[C@@H](CCCNC(N)=O)C(=O)N[C@@H](C)C(=O)N[C@@H](CCCNC(N)=O)C(N)=O) [β60-74Cit-NH2, X1, X2 citrullyl; X3 citrullyl derivative with carboxamide in place of terminal carboxyl; fibrinogen β-chain 60-74] | most of the plasmas tested were reactive | significant correlations | +++ | +++ | +++ | [empty] | +++ | ++ | ++ | [empty] | [empty] | +++ | 76 |
